In US7572920B2, “Benzimidazole derivative and use as a II receptor antagonist” (Takeda Pharmaceutical Company Limited, priority 2004, dated 2009):
Marks after values point to notes of the source that are not given here.

What was measured:
[1] = system: angiotensin II induced pressor response; test: Inhibition of angiotensin II induced pressor response in dogs; assay type: in vivo, male beagles; details: fasting, AII 100 ng/kg i.v., test compound p.o. at dose equimolar to compound A 1 mg/kg, in 0.5% methylcellulose, mean±SEM
Procedure: Inhibitory Effects of the Compounds of the Present Invention Against Angiotensin II Induced Pressor Response in Dogs
For the experiment, male beagles (body weight 12.0-14.7 kg, KITAYAMA LABES, CO., LTD.) were used. They were anesthetized with sodium pentobarbital (50 mg/kg, i.p.), and a tracheal tube was inserted for management of the airway. The femoral region and the back of the neck were shaved, and a disinfectant (Isodine solution, MEIJI SEIKA KAISHA, LTD.) was applied. The dog was fixed at the dorsal position and the right femoral region was incised. A mirror catheter (5 F, MILLER INDUSTRIES) was inserted and placed in the femoral artery and a polyurethane tube in the femoral vein. The catheter and tube were passed through subcutaneously and fixed at the back region. The incised region was sutured thereafter and penicillin G potassium (MEIJI SEIKA KAISHA, LTD., 40000 units) was intramuscularly administered to prevent infection. Beginning from the next day, penicillin G potassium (40000 units) was administered once a day for 3 days. After 3 days for recovery, the dog was subjected to the experiment.
During the experiment, the dog was placed in a small metabolic cage. For measurement, the mirror catheter inserted in the femoral artery was connected to a transducer unit (MILLER INDUSTRIES), and the systemic blood pressure (average blood pressure) was recorded on a recorder (RECTI-HORIZ 8 K, NEC San-ei Instruments) through a DC amplifier (N4777, NEC San-ei Instruments) and a blood pressure monitor amplifier (N4441, NEC San-ei Instruments). The polyurethane tube inserted in the femoral vein was fixed outside the cage and used for administration of AII (PEPTIDE INSTITUTE, INC.). The experiment was conducted under fasting and AII (100 ng/kg, i.v.) was administered 3 or 4 times before administration of a test compound to confirm stabilization of the vasopressor response. A dose of the test compound corresponding to an equimolar amount of compound A was suspended in 0.5% methylcellulose and orally administered at a volume of 2 mL/kg. After drug administration, AII was administered at each time point of measurement and increase in the blood pressure was measured, based on which the inhibition rate from the value before the administration was calculated.
The results are shown in mean±SEM (Table 2). The significance between the group administered with the compound obtained in Example 5 and the group administered with compound A was analyzed using Student's t-test with Bonferroni correction ([…]).

[2] = system: angiotensin II induced pressor response; test: Inhibition of angiotensin II induced pressor response in rats; assay type: in vivo, Male Sprague-Dawley rats; details: AII 100 ng/kg i.v., test compound p.o. at dose equimolar to compound A (0.10-0.14 mg/kg), in 0.5% methylcellulose, mean±SEM
Procedure: Inhibitory Effects of Compounds of the Present Invention Against Angiotensin II Induced Pressor Response in Rats
Male Sprague-Dawley rats (9-11 weeks old, CLEA Japan, Inc.) were anesthetized with pentobarbital (50 mg/kg, i.p.) and the femoral artery and vein were isolated and cannulated with polyethylene tubes filled with saline containing heparin (200 U/mL). The catheters were subcutaneously inserted to a site in the back of the neck and fixed. After recovery period, the rat was subjected to the experiment. The arterial catheter was connected to a pressure transducer coupled to a blood pressure monitor amplifier (2238, NEC San-ei Instruments) and the pressure was recorded on a recorder (RECTI-HORIZ 8K, NEC San-ei Instruments). After establishing angiotensin II (AII, 100 ng/kg, i.v.) induced pressor responses, a test compound at a dose corresponding to an equimolar amount of compound A (2-ethoxy-1-{[2′-(5-oxo-4,5-dihydro-1,2,4-oxadiazol-3-yl)biphenyl-4-yl]methyl}-1H-benzimidazole-7-carboxylic acid) was administered. AII was administered 24 hours later and increase in the blood pressure was measured, based on which the inhibition rate from the value before the administration was calculated. All compounds were suspended in 0.5% methylcellulose and orally administered at a volume of 2 mL/kg.
The results are shown in mean±SEM (Table 1). The significance between the group administered with the compound obtained in Example 5 and the other groups was analyzed using Student's t-test ([…]).

Structure (SMILES) | inhibition rate of AII induced increase in blood pressure, 10 hrs after administration [1] | inhibition rate of AII induced increase in blood pressure, 24 hrs after administration [1] | inhibition rate of AII induced increase in blood pressure, 24 hrs after administration [2]
CCOc1nc2cccc(C(=O)OCc3oc(=O)oc3C)c2n1Cc1ccc(-c2ccccc2-c2noc(=O)[nH]2)cc1 [Example 2, (5-methyl-2-oxo-1,3-dioxol-4-yl)methyl 2-ethoxy-1-{[2′-(5-oxo-4,5-dihydro-1,2,4-oxadiazol-3-yl)biphenyl-4-yl]methyl}-1H-benzimidazole-7-carboxylate] | 35.9 ± 4.8 | 28.6 ± 4.1 | –
CCOc1nc2cccc(C(=O)OCc3oc(=O)oc3C)c2n1Cc1ccc(-c2ccccc2-c2noc(=O)[nH]2)cc1.[K] [Example 5, (5-methyl-2-oxo-1,3-dioxol-4-yl)methyl 2-ethoxy-1-{[2′-(5-oxo-4,5-dihydro-1,2,4-oxadiazol-3-yl)biphenyl-4-yl]methyl}-1H-benzimidazole-7-carboxylate potassium salt] | 55.6 ± 3.4** | 40.3 ± 5.1* | 32.7 ± 4.6
CCOc1nc2cccc(C(=O)O)c2n1Cc1ccc(-c2ccccc2-c2noc(=O)[nH]2)cc1 [compound A, 2-ethoxy-1-{[2′-(5-oxo-4,5-dihydro-1,2,4-oxadiazol-3-yl)biphenyl-4-yl]methyl}-1H-benzimidazole-7-carboxylic acid] | 27.0 ± 3.2 | 19.6 ± 3.7 | –
CCOc1nc2cccc(C(=O)OC)c2n1Cc1ccc(-c2ccccc2-c2noc(=O)[nH]2)cc1 [compound B, methyl 2-ethoxy-1-{[2′-(5-oxo-4,5-dihydro-1,2,4-oxadiazol-3-yl)biphenyl-4-yl]methyl}-1H-benzimidazole-7-carboxylate] | – | – | 0.8 ± 4.9**
CCOc1nc2cccc(C(=O)OC(C)OC(=O)OC3CCCCC3)c2n1Cc1ccc(-c2ccccc2-c2noc(=O)[nH]2)cc1 (stereo not shown) [compound C, 1-(cyclohexyloxycarbonyloxy)ethyl 2-ethoxy-1-{[2′-(5-oxo-4,5-dihydro-1,2,4-oxadiazol-3-yl)biphenyl-4-yl]methyl}-1H-benzimidazole-7-carboxylate] | – | – | 9.3 ± 8.6*
CCOc1nc2cccc(C(=O)OCOC(C)=O)c2n1Cc1ccc(-c2ccccc2-c2noc(=O)[nH]2)cc1 [compound D, acetoxymethyl 2-ethoxy-1-{[2′-(5-oxo-4,5-dihydro-1,2,4-oxadiazol-3-yl)biphenyl-4-yl]methyl}-1H-benzimidazole-7-carboxylate] | – | – | 10.9 ± 5.6*
